# Test results as given in US8192962B2, “Processes for detecting toxic substances” (Daikin Industries, Ltd., priority 2001, dated 2012).
# System: Detoxification protein genes
# Assay: DNA chip mRNA expression in yeast, detoxification protein genes (Table 8)
# Format: cell-based, Saccharomyces cerevisiae S288C
# Summary of the method: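 Untreated cultures served as reference for log-phase S288C yeast given a growth-inhibiting, non-lethal toxicant dose for 2 h at 25° C. in YPD. Gene expression was measured on a whole-genome DNA chip from Cy3/Cy5-labeled cDNA.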
structure (smiles),measurement,setting,value
"[Cl][Pb][Cl] [(4), PbCl2]",The level of expressed mRNA in the presence of chemical substance/The level of expressed mRNA in the absence of chemical substance,yeast gene YBL064C,1.7
same,The level of expressed mRNA in the presence of chemical substance/The level of expressed mRNA in the absence of chemical substance,yeast gene YBR008C,0.7
same,The level of expressed mRNA in the presence of chemical substance/The level of expressed mRNA in the absence of chemical substance,yeast gene YBR145W,0.9
same,The level of expressed mRNA in the presence of chemical substance/The level of expressed mRNA in the absence of chemical substance,yeast gene YBR244W,0.9
same,The level of expressed mRNA in the presence of chemical substance/The level of expressed mRNA in the absence of chemical substance,yeast gene YBR293W,1.8
same,The level of expressed mRNA in the presence of chemical substance/The level of expressed mRNA in the absence of chemical substance,yeast gene YCL035C,1.7
same,The level of expressed mRNA in the presence of chemical substance/The level of expressed mRNA in the absence of chemical substance,yeast gene YCL069W,0.8
same,The level of expressed mRNA in the presence of chemical substance/The level of expressed mRNA in the absence of chemical substance,yeast gene YCR083W,1.8
same,The level of expressed mRNA in the presence of chemical substance/The level of expressed mRNA in the absence of chemical substance,yeast gene YDL100C,0.8
same,The level of expressed mRNA in the presence of chemical substance/The level of expressed mRNA in the absence of chemical substance,yeast gene YDL168W,0.9
same,The level of expressed mRNA in the presence of chemical substance/The level of expressed mRNA in the absence of chemical substance,yeast gene YDR256C,1.3
same,The level of expressed mRNA in the presence of chemical substance/The level of expressed mRNA in the absence of chemical substance,yeast gene YDR453C,3.0
same,The level of expressed mRNA in the presence of chemical substance/The level of expressed mRNA in the absence of chemical substance,yeast gene YDR513W,2.6
same,The level of expressed mRNA in the presence of chemical substance/The level of expressed mRNA in the absence of chemical substance,yeast gene YDR538W,1.2
same,The level of expressed mRNA in the presence of chemical substance/The level of expressed mRNA in the absence of chemical substance,yeast gene YEL027W,1.1
same,The level of expressed mRNA in the presence of chemical substance/The level of expressed mRNA in the absence of chemical substance,yeast gene YEL065W,0.4
same,The level of expressed mRNA in the presence of chemical substance/The level of expressed mRNA in the absence of chemical substance,yeast gene YER185W,7.0
same,The level of expressed mRNA in the presence of chemical substance/The level of expressed mRNA in the absence of chemical substance,yeast gene YFL050C,2.2
same,The level of expressed mRNA in the presence of chemical substance/The level of expressed mRNA in the absence of chemical substance,yeast gene YGL013C,0.7
same,The level of expressed mRNA in the presence of chemical substance/The level of expressed mRNA in the absence of chemical substance,yeast gene YGL254W,0.6
same,The level of expressed mRNA in the presence of chemical substance/The level of expressed mRNA in the absence of chemical substance,yeast gene YGR088W,2.4
same,The level of expressed mRNA in the presence of chemical substance/The level of expressed mRNA in the absence of chemical substance,yeast gene YGR138C,1.2
same,The level of expressed mRNA in the presence of chemical substance/The level of expressed mRNA in the absence of chemical substance,yeast gene YGR197C,1.0
same,The level of expressed mRNA in the presence of chemical substance/The level of expressed mRNA in the absence of chemical substance,yeast gene YGR209C,1.5
same,The level of expressed mRNA in the presence of chemical substance/The level of expressed mRNA in the absence of chemical substance,yeast gene YGR224W,1.2
same,The level of expressed mRNA in the presence of chemical substance/The level of expressed mRNA in the absence of chemical substance,yeast gene YHL040C,0.4
same,The level of expressed mRNA in the presence of chemical substance/The level of expressed mRNA in the absence of chemical substance,yeast gene YHL047C,1.0
same,The level of expressed mRNA in the presence of chemical substance/The level of expressed mRNA in the absence of chemical substance,yeast gene YHR008C,1.8
same,The level of expressed mRNA in the presence of chemical substance/The level of expressed mRNA in the absence of chemical substance,yeast gene YHR048W,1.7
same,The level of expressed mRNA in the presence of chemical substance/The level of expressed mRNA in the absence of chemical substance,yeast gene YHR053C,1.1
same,The level of expressed mRNA in the presence of chemical substance/The level of expressed mRNA in the absence of chemical substance,yeast gene YHR055C,1.2
same,The level of expressed mRNA in the presence of chemical substance/The level of expressed mRNA in the absence of chemical substance,yeast gene YIR002C,0.6
same,The level of expressed mRNA in the presence of chemical substance/The level of expressed mRNA in the absence of chemical substance,yeast gene YIR038C,2.0
same,The level of expressed mRNA in the presence of chemical substance/The level of expressed mRNA in the absence of chemical substance,yeast gene YJL101C,1.2
same,The level of expressed mRNA in the presence of chemical substance/The level of expressed mRNA in the absence of chemical substance,yeast gene YJR104C,1.2
same,The level of expressed mRNA in the presence of chemical substance/The level of expressed mRNA in the absence of chemical substance,yeast gene YKL026C,4.9
same,The level of expressed mRNA in the presence of chemical substance/The level of expressed mRNA in the absence of chemical substance,yeast gene YKL064W,0.8
same,The level of expressed mRNA in the presence of chemical substance/The level of expressed mRNA in the absence of chemical substance,yeast gene YKR066C,0.7
same,The level of expressed mRNA in the presence of chemical substance/The level of expressed mRNA in the absence of chemical substance,yeast gene YKR105C,1.5
same,The level of expressed mRNA in the presence of chemical substance/The level of expressed mRNA in the absence of chemical substance,yeast gene YKR106W,1.4
same,The level of expressed mRNA in the presence of chemical substance/The level of expressed mRNA in the absence of chemical substance,yeast gene YLL028W,0.5
same,The level of expressed mRNA in the presence of chemical substance/The level of expressed mRNA in the absence of chemical substance,yeast gene YLL057C,0.9
same,The level of expressed mRNA in the presence of chemical substance/The level of expressed mRNA in the absence of chemical substance,yeast gene YLL060C,2.6
same,The level of expressed mRNA in the presence of chemical substance/The level of expressed mRNA in the absence of chemical substance,yeast gene YLR043C,1.8
same,The level of expressed mRNA in the presence of chemical substance/The level of expressed mRNA in the absence of chemical substance,yeast gene YLR046C,0.8
same,The level of expressed mRNA in the presence of chemical substance/The level of expressed mRNA in the absence of chemical substance,yeast gene YML028W,1.3
same,The level of expressed mRNA in the presence of chemical substance/The level of expressed mRNA in the absence of chemical substance,yeast gene YML116W,1.4
same,The level of expressed mRNA in the presence of chemical substance/The level of expressed mRNA in the absence of chemical substance,yeast gene YMR015C,0.9
same,The level of expressed mRNA in the presence of chemical substance/The level of expressed mRNA in the absence of chemical substance,yeast gene YMR038C,0.8
same,The level of expressed mRNA in the presence of chemical substance/The level of expressed mRNA in the absence of chemical substance,yeast gene YNL239W,1.2
same,The level of expressed mRNA in the presence of chemical substance/The level of expressed mRNA in the absence of chemical substance,yeast gene YNL241C,1.0
same,The level of expressed mRNA in the presence of chemical substance/The level of expressed mRNA in the absence of chemical substance,yeast gene YNL259C,1.2
same,The level of expressed mRNA in the presence of chemical substance/The level of expressed mRNA in the absence of chemical substance,yeast gene YOL158C,0.9
same,The level of expressed mRNA in the presence of chemical substance/The level of expressed mRNA in the absence of chemical substance,yeast gene YOR031W,3.4
same,The level of expressed mRNA in the presence of chemical substance/The level of expressed mRNA in the absence of chemical substance,yeast gene YOR153W,1.1
same,The level of expressed mRNA in the presence of chemical substance/The level of expressed mRNA in the absence of chemical substance,yeast gene YOR247W,1.4
same,The level of expressed mRNA in the presence of chemical substance/The level of expressed mRNA in the absence of chemical substance,yeast gene YOR251C,1.8
same,The level of expressed mRNA in the presence of chemical substance/The level of expressed mRNA in the absence of chemical substance,yeast gene YOR273C,1.0
same,The level of expressed mRNA in the presence of chemical substance/The level of expressed mRNA in the absence of chemical substance,yeast gene YPL163C,0.9
same,The level of expressed mRNA in the presence of chemical substance/The level of expressed mRNA in the absence of chemical substance,yeast gene YPR200C,5.0
